# Reference: paper PMC5779083 (Cellular signalling, 2017)
# Several values for one entry are separate records, joined by “and”; a condition that tells them apart may be missing. Identical values can stand only once.
# Key:
# C57BL/6 mice [1] = experiment: 5′-GNTI-induced scratching; assay type: in vivo; details: for number of scratches induced: 30 μg/kg s.c.
# rKOR [2] = target: T1, rKOR (Rattus norvegicus, UniProt P34975); experiment: Signaling bias, ERK1/2; assay type: cell-based, rodent; details: ERK1/2 vs p38 phosphorylation, U50,488 as reference
# T1 sequence (P34975 whole entry): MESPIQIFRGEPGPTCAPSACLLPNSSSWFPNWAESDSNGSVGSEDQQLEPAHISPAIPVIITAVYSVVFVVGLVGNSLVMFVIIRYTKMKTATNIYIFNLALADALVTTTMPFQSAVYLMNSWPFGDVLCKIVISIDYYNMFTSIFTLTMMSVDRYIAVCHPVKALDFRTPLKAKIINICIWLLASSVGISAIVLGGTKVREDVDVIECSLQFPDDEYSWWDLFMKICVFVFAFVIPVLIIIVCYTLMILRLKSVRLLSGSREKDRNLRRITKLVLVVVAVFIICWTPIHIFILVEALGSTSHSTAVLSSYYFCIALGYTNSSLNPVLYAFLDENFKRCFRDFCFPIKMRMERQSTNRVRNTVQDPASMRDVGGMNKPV
# [3] = tested on: untransfected HEK293 cells; experiment: ERK1/2 and p38 phosphorylation in untransfected HEK293 cells; assay type: cell-based; details: untransfected HEK293, 1 μM, 5 min (pERK) or 30 min (pp38), n=3
# C57BL/6 mice [4] = experiment: Warm-water tail-withdrawal assay; assay type: in vivo; details: for analgesic response (increase in tail withdrawal latency): 30 min post-injection, wild type C57BL/6; for change in tail withdrawal latency after norBNI pretreatment: norBNI 10 mg/kg 3–5 days prior
# C57BL/6 mice [5] = experiment: Locomotor activity; details: 50 μg/kg, n=3; no impairment vs saline (p=0.73)
# hKOR [6] = target: T2, hKOR (Homo sapiens, UniProt P41145); experiment: Signaling bias, ERK1/2; assay type: cell-based; details: ERK1/2 vs p38 phosphorylation, U50,488 as reference
# T2 sequence (P41145 whole entry): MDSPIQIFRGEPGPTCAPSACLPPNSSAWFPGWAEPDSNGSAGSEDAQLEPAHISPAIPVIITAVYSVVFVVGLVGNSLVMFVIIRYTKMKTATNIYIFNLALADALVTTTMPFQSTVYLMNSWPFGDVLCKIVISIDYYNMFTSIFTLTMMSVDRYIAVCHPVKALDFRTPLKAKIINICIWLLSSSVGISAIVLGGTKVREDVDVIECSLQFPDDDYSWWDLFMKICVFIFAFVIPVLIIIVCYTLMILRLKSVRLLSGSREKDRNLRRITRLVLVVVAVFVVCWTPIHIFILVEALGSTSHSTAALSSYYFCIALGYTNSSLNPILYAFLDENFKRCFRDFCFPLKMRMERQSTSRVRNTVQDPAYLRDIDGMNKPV
# C57BL/6 mice [7] = experiment: Acute cross-tolerance to U50,488 in warm-water tail-withdrawal assay; assay type: in vivo; details: 1 mg/kg i.p. pretreatment
# rMOR = rMOR (Rattus norvegicus, UniProt P33535); experiment: ERK1/2 phosphorylation; assay type: cell-based
# rMOR, sequence (P33535 whole entry): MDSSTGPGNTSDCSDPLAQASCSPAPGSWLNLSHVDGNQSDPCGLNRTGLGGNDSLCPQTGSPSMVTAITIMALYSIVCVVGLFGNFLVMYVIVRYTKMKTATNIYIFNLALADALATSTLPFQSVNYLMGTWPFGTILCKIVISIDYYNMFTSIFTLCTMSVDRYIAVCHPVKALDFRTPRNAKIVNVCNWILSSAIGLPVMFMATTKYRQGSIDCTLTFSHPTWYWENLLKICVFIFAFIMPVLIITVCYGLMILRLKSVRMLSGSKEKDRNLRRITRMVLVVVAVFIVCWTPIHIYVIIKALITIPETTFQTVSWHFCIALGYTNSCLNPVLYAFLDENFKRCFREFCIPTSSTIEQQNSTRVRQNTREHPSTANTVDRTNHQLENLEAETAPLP
# rKOR [8] = target: T1, rKOR; details: rKOR expressing HEK293; cited from earlier work
# hKOR [9] = target: T2, hKOR; details: hKOR-expressing HEK293 cells; cited from earlier work
compound,measurement,setting,value
"CN(C(=O)/C=C/c1ccoc1)[C@@H]1CC[C@@]2(O)[C@H]3Cc4ccc(O)c5c4[C@@]2(CCN3CC2CC2)[C@H]1O5 [Nalfurafine, (2E)-N-[(5α,6β)-17-(cyclopropylmethyl)-3,14-dihydroxy-4,5-epoxymorphinan-6-yl]-3-(3-furyl)-N methylacrylamide]",5′-GNTI-induced scratching after pretreatment,"C57BL/6 mice [1]; 20 μg/kg s.c. 20 min prior to 5′-GNTI, wild type C57BL/6, n=10, not significant",556 ± 67 scratches in 30 min
same,5′-GNTI-induced scratching after pretreatment,"C57BL/6 mice [1]; 50 μg/kg s.c. 20 min prior to 5′-GNTI 30 μg/kg, KOR−/− mice, n=8, not significant",580 ± 16 times in 30 min
same,5′-GNTI-induced scratching after pretreatment,"C57BL/6 mice [1]; 50 μg/kg s.c. 20 min prior to 5′-GNTI 30 μg/kg, MOR−/− mice, n=8",99 ± 40 times in 30 min
same,5′-GNTI-induced scratching after pretreatment,"C57BL/6 mice [1]; 50 μg/kg s.c. 20 min prior to 5′-GNTI 30 μg/kg, wild type, n=9",241±33 times in 30 min
same,Bias factor,rKOR [2],7 and 7.2
same,ΔΔlog(RA) Mean (SEM),rKOR [2],1.15 (0.74)
same,increase in ERK1/2 or p38 phosphorylation,[3],No significant increase
same,analgesic response (increase in tail withdrawal latency),C57BL/6 mice [4]; 50 μg/kg i.p.,1.5 ± 0.7 s
same,change in tail withdrawal latency after norBNI pretreatment,C57BL/6 mice [4]; 50 μg/kg,0.6 ± 0.1 s
same,analgesic response (increase in tail withdrawal latency),C57BL/6 mice [4]; 150 μg/kg i.p.,1.7 ± 0.4 s
same,change in tail withdrawal latency after norBNI pretreatment,C57BL/6 mice [4]; 150 μg/kg,0.7 ± 0.2 s
same,"general locomotor activity, distance moved over 30 min",C57BL/6 mice [5],3531 ± 1215 cm
same,ΔΔlog(RA) Mean (SEM),hKOR [6],3.2 (1.02)
same,"cross-tolerance: effect of pretreatment on U50,488-induced analgesia","C57BL/6 mice [7]; 3 h before U50,488 15 mg/kg i.p.","significantly decreased U50,488-induced analgesia"
same,"cross-tolerance: effect of pretreatment on U50,488-induced analgesia","C57BL/6 mice [7]; 24 h before U50,488 15 mg/kg i.p.",lack of residual analgesic tolerance
same,EC50,rMOR,7.9 nM
"Oc1ccc2c3c1O[C@H]1c4[nH]c5c(c4C[C@@]4(O)[C@@H](C2)N(CC2CC2)CC[C@]314)C[C@@]1(O)[C@H]2Cc3ccc(O)c4c3[C@@]1(CCN2CC1CC1)[C@H]5O4 [norBNI, norbinaltorphimine]","effect on U50,488-mediated increase in withdrawal latency","C57BL/6 mice [4]; norBNI 10 mg/kg 3–5 days prior to U50,488, p < 0.01",blocked
same,effect on nalfurafine-mediated increase in withdrawal latency,"C57BL/6 mice [4]; norBNI 10 mg/kg 3–5 days prior to nalfurafine, p < 0.05",blocked
NC(N)=Nc1ccc2[nH]c3c(c2c1)C[C@@]1(O)[C@H]2Cc4ccc(O)c5c4[C@@]1(CCN2CC1CC1)[C@H]3O5 [5′-GNTI],number of scratches induced,"C57BL/6 mice [1]; KOR−/− mice, n=8",550 ± 84 times in 30 min
same,number of scratches induced,"C57BL/6 mice [1]; wild type mice, n=10",566 ± 60 times in 30 min
Oc1ccc2c(c1)[C@@]13CCCC[C@@]1(O)[C@@H](C2)N(CC1CCC1)CC3 [Butorphanol],signaling bias (in words),rKOR [8],G protein biased
same,signaling bias (in words),hKOR [9],p38-biased
CC(C)=CCN1CCC2(C)c3cc(O)ccc3CC1C2C (stereo not shown) [Pentazocine],Bias factor,rKOR [2],1.4
same,ΔΔlog(RA) Mean (SEM),rKOR [2],0.14 (0.79)
same,signaling bias (in words),rKOR [8],unbiased
same,Bias factor,hKOR [6],0.62
same,ΔΔlog(RA) Mean (SEM),hKOR [6],−0.20 (0.78)
same,signaling bias (in words),hKOR [9],p38-biased
